Results published in ChEMBL document CHEMBL4406885, “Effect of self-assembly on antimicrobial activity of double-chain short cationic lipopeptides” (Bioorg Med Chem, 2019).
≈ marks a conversion by molar mass, not a printed value. Calls of active or inactive are those of the source. The calls are words filed in the database; no cut-off is given here. Where a SMILES comes first, the peptide text is derived from it. [ ]: non-standard residue; d: D form. The star is where a group is joined. ξ: configuration not given here. Palmitoyl = CCCCCCCCCCCCCCCC(=O)*; Myristoyl = CCCCCCCCCCCCCC(=O)*; Lauroyl = CCCCCCCCCCCC(=O)*; Decanoyl = CCCCCCCCCC(=O)*; ξDab = NCCC(N)C(=O)O; ξDap = NCC(N)C(=O)O

Tests used:
Lipid bilayer [1] = assay: Binding affinity to POPG large unilamellar vesicle at 298 kelvin by ITC method
Lipid bilayer [2] = assay: Binding affinity to DPPG large unilamellar vesicles at 298 kelvin by ITC method
Lipid bilayer [3] = assay: Binding affinity to POPC large unilamellar vesicle at 0.2 mM by ITC method
Lipid bilayer [4] = assay: Binding affinity to DPPG large unilamellar vesicles at 323 kelvin by ITC method
HaCaT = assay: Cytotoxicity against human HaCaT cells assessed as growth inhibition measured after 24 hrs by MTT assay; assay type: cell-based
Escherichia coli = assay: Antibacterial activity against Escherichia coli ATCC 25922 assessed as growth inhibition measured after 18 hrs by CLSI based method; assay type: functional; details: ATCC 25922, 18 h
Candida albicans = assay: Antifungal activity against Candida albicans ATCC 10231 assessed as growth inhibition measured after 48 hrs by CLSI based method; assay type: functional; details: ATCC 10231, 48 h
Staphylococcus aureus = assay: Antibacterial activity against Staphylococcus aureus ATCC 25923 assessed as growth inhibition measured after 18 hrs by CLSI based method; assay type: functional; details: ATCC 25923, 18 h
[5] = system: Staphylococcus epidermidis; assay: Antibacterial activity against Staphylococcus epidermidis PCM 2118 assessed as growth inhibition measured after 18 hrs by CLSI based method; assay type: functional; details: PCM 2118, 18 h
Pseudomonas aeruginosa = assay: Antibacterial activity against Pseudomonas aeruginosa ATCC 9027 assessed as growth inhibition measured after 18 hrs by CLSI based method; assay type: functional; details: ATCC 9027, 18 h
[6] = Critical micelle concentration of compound; assay type: physicochemical
[7] = Surfactant-like property of compound at CMC; assay type: physicochemical
[8] = Binding affinity to DPPG lipid assessed as change in melting temperature at 10:1 molar ratio of lipid:lipopeptide by FTIR analysis
[9] = Critical micelle concentration of compound by ITC method; assay type: physicochemical
[10] = Hemolytic activity in human RBC induction of hemolysis at 128 ug/ml at MIC after 60 mins by spectrophotometric method relative to control; assay type: cell-based, Erythrocyte; details: human red blood cells (erythrocytes), read-out: Activity

SMILES	pK (Lipid bilayer [1])	pK (Lipid bilayer [2])	Activity (Lipid bilayer [3])	pK (Lipid bilayer [4])	MIC (Escherichia coli)	MIC (Candida albicans)	MIC (Staphylococcus aureus)	MIC [5]	MIC (Pseudomonas aeruginosa)	CMC [6]	gammaCMC [7]	ΔTm [8]	CMC [9]	IC50 (HaCaT)	hemolysis at 1 h, 128 ug/ml [10]
CCCCCCCCCC(=O)NCC(NC(=O)CCCCCCCCC)C(=O)O (configuration not stated)	6.83 to 50.7	6.59 to 7.4	inactive	4.5	–	–	–	–	–	–	–	–	–	–	–
CCCCCCCCCC(=O)NCCC(NC(=O)CCCCCCCCC)C(=O)O (configuration not stated)	–	5.76 to 7.37	inactive	5.06	–	–	–	–	–	–	–	–	–	–	–
CCCCCCCCCCCC(=O)NCC(NC(=O)CCCCCCCCCCC)C(=O)O (configuration not stated)	6.34	7.18	inactive	5.37	–	–	–	–	–	–	–	–	–	–	–
CCCCCCCCCCCC(=O)NCCC(NC(=O)CCCCCCCCCCC)C(=O)O (configuration not stated)	4.1	5.14 to 7.38	inactive	4.52	–	–	–	–	–	–	–	–	–	–	–
CCCCCCCCCCCCCCCC(=O)NCC(NC(=O)CCCCCCCCCCCCCCC)C(=O)O (configuration not stated)	–	4.26 to 6.99	inactive	inactive	–	–	–	–	–	–	–	–	–	–	–
CCCCCCCCCCCCCCCC(=O)NCCCC[C@H](NC(=O)CCCCCCCCCCCCCCC)C(=O)N[C@@H](CCCCN)C(=O)N[C@@H](CCCCN)C(=O)N[C@@H](CCCCN)C(N)=O (Palmitoyl-K(Palmitoyl)KKK-NH2)	–	–	inactive	–	> 512 µg/mL	> 512 µg/mL	> 512 µg/mL	> 512 µg/mL	> 512 µg/mL	–	–	–	–	–	–
CCCCCCCCCCCCCCCC(=O)NCCC(NC(=O)CCCCCCCCCCCCCCC)C(=O)N[C@@H](CCCCN)C(=O)N[C@@H](CCCCN)C(=O)N[C@@H](CCCCN)C(N)=O (some centres not stated) (Palmitoyl-[ξDab](Palmitoyl)KKK-NH2)	–	–	inactive	–	> 512 µg/mL	> 512 µg/mL	> 512 µg/mL	256 µg/mL (≈ 262 µM)	> 512 µg/mL	0.32 mM	41.5 mN/meter	–	0.06 to 0.22 mM	–	–
CCCCCCCCCCCCCCCC(=O)NCC(NC(=O)CCCCCCCCCCCCCCC)C(=O)N[C@@H](CCCCN)C(=O)N[C@@H](CCCCN)C(=O)N[C@@H](CCCCN)C(N)=O (some centres not stated) (Palmitoyl-[ξDap](Palmitoyl)KKK-NH2)	–	–	inactive	–	> 512 µg/mL	> 512 µg/mL	> 512 µg/mL	512 µg/mL (≈ 531 µM)	> 512 µg/mL	0.32 mM	45.9 mN/meter	–	0.35 to 0.7 mM	–	–

Further lines, with some results ahead:

pK (Lipid bilayer [1])	pK (Lipid bilayer [2])	Activity (Lipid bilayer [3])	pK (Lipid bilayer [4])	MIC (Escherichia coli)	MIC (Candida albicans)	MIC (Staphylococcus aureus)	MIC [5]	MIC (Pseudomonas aeruginosa)	CMC [6]	gammaCMC [7]	ΔTm [8]	CMC [9]	SMILES	IC50 (HaCaT)	hemolysis at 1 h, 128 ug/ml [10]
–	–	inactive	–	16 µg/mL (≈ 19.1 µM)	8 µg/mL (≈ 9.54 µM)	64 µg/mL (≈ 76.4 µM)	2 µg/mL (≈ 2.39 µM)	8 µg/mL (≈ 9.54 µM)	–	–	–	–	CCCCCCCCCC(=O)NCCCC[C@H](NC(=O)CCCCCCCCC)C(=O)N[C@@H](CCCCN)C(=O)N[C@@H](CCCCN)C(=O)N[C@@H](CCCCN)C(N)=O (Decanoyl-K(Decanoyl)KKK-NH2)	18.8 µg/mL (≈ 22.4 µM)	–
–	–	inactive	–	16 µg/mL (≈ 19.7 µM)	16 µg/mL (≈ 19.7 µM)	8 µg/mL (≈ 9.87 µM)	4 µg/mL (≈ 4.94 µM)	8 µg/mL (≈ 9.87 µM)	3.16 mM	41.5 mN/meter	2.5 to 3 °C	–	CCCCCCCCCC(=O)NCCC(NC(=O)CCCCCCCCC)C(=O)N[C@@H](CCCCN)C(=O)N[C@@H](CCCCN)C(=O)N[C@@H](CCCCN)C(N)=O (some centres not stated) (Decanoyl-[ξDab](Decanoyl)KKK-NH2)	1.16 µg/mL (≈ 1.43 µM)	–
–	–	inactive	–	8 µg/mL (≈ 10 µM)	16 µg/mL (≈ 20.1 µM)	2 µg/mL (≈ 2.51 µM)	4 µg/mL (≈ 5.02 µM)	4 µg/mL (≈ 5.02 µM)	3.24 mM	42.5 mN/meter	2.5 to 3 °C	–	CCCCCCCCCC(=O)NCC(NC(=O)CCCCCCCCC)C(=O)N[C@@H](CCCCN)C(=O)N[C@@H](CCCCN)C(=O)N[C@@H](CCCCN)C(N)=O (some centres not stated) (Decanoyl-[ξDap](Decanoyl)KKK-NH2)	75 µg/mL (≈ 94.2 µM)	–
–	–	inactive	–	128 µg/mL (≈ 143 µM)	8 µg/mL (≈ 8.95 µM)	64 µg/mL (≈ 71.6 µM)	16 µg/mL (≈ 17.9 µM)	256 µg/mL (≈ 286 µM)	–	–	–	–	CCCCCCCCCCCC(=O)NCCCC[C@H](NC(=O)CCCCCCCCCCC)C(=O)N[C@@H](CCCCN)C(=O)N[C@@H](CCCCN)C(=O)N[C@@H](CCCCN)C(N)=O (Lauroyl-K(Lauroyl)KKK-NH2)	31.1 µg/mL (≈ 34.8 µM)	–
–	–	inactive	–	64 µg/mL (≈ 73.9 µM)	16 µg/mL (≈ 18.5 µM)	64 µg/mL (≈ 73.9 µM)	8 µg/mL (≈ 9.23 µM)	64 µg/mL (≈ 73.9 µM)	1.25 mM	40 mN/meter	–	1.34 mM	CCCCCCCCCCCC(=O)NCCC(NC(=O)CCCCCCCCCCC)C(=O)N[C@@H](CCCCN)C(=O)N[C@@H](CCCCN)C(=O)N[C@@H](CCCCN)C(N)=O (some centres not stated) (Lauroyl-[ξDab](Lauroyl)KKK-NH2)	30.7 µg/mL (≈ 35.4 µM)	13%
–	–	inactive	–	256 µg/mL (≈ 300 µM)	8 µg/mL (≈ 9.39 µM)	32 µg/mL (≈ 37.5 µM)	8 µg/mL (≈ 9.39 µM)	128 µg/mL (≈ 150 µM)	1.41 mM	41.3 mN/meter	–	1.53 mM	CCCCCCCCCCCC(=O)NCC(NC(=O)CCCCCCCCCCC)C(=O)N[C@@H](CCCCN)C(=O)N[C@@H](CCCCN)C(=O)N[C@@H](CCCCN)C(N)=O (some centres not stated) (Lauroyl-[ξDap](Lauroyl)KKK-NH2)	43.3 µg/mL (≈ 50.8 µM)	50%
–	–	inactive	–	> 512 µg/mL	512 µg/mL (≈ 539 µM)	> 512 µg/mL	256 µg/mL (≈ 269 µM)	512 µg/mL (≈ 539 µM)	–	–	–	–	CCCCCCCCCCCCCC(=O)NCCCC[C@H](NC(=O)CCCCCCCCCCCCC)C(=O)N[C@@H](CCCCN)C(=O)N[C@@H](CCCCN)C(=O)N[C@@H](CCCCN)C(N)=O (Myristoyl-K(Myristoyl)KKK-NH2)	–	–
–	–	inactive	–	> 512 µg/mL	> 512 µg/mL	> 512 µg/mL	> 512 µg/mL	> 512 µg/mL	0.45 mM	46.9 mN/meter	–	0.28 to 0.53 mM	CCCCCCCCCCCCCC(=O)NCCC(NC(=O)CCCCCCCCCCCCC)C(=O)N[C@@H](CCCCN)C(=O)N[C@@H](CCCCN)C(=O)N[C@@H](CCCCN)C(N)=O (some centres not stated) (Myristoyl-[ξDab](Myristoyl)KKK-NH2)	–	–
–	–	inactive	–	> 512 µg/mL	> 512 µg/mL	> 512 µg/mL	128 µg/mL (≈ 141 µM)	> 512 µg/mL	0.35 mM	46.1 mN/meter	–	0.35 mM	CCCCCCCCCCCCCC(=O)NCC(NC(=O)CCCCCCCCCCCCC)C(=O)N[C@@H](CCCCN)C(=O)N[C@@H](CCCCN)C(=O)N[C@@H](CCCCN)C(N)=O (some centres not stated) (Myristoyl-[ξDap](Myristoyl)KKK-NH2)	–	–
